Source: US8921108B2, “Differentiated human liver cell cultures and their use in bioartificial liver systems” (Academisch Ziekenhuis Bij de Universiteit van Amsterdam, priority 2009, dated 2014)

Experiments:
Type in all cases: cell-based, human
HepaRG cells = assay: RT-PCR mRNA levels of hepatic genes in HepaRG monolayer cultures; conditions: CG treatment
Description: The HepaRG cells cultured in the 6-well plates are lysed and the RNA is isolated using the RNeasy kit (Qiagen). Next, real-time reverse transcriptase-polymerase chain reactions (RT-PCR) are performed to quantify mRNA levels of hepatic genes as well as 18S ribosomal RNA levels by RT-PCR.
First-strand cDNA is generated using a combination of 40 pmol of gene-specific RT-primers (see Table 1) and 134 units of Superscript III (Invitrogen) and 1 μg RNA in a total volume of 25 μl at 50° C. for one hour followed by a 15 min incubation at 70° C. The resulting gene-specific RT reaction mixtures are column purified using Qiaquick PCR Purification Kit (Qiagen).
Real-time PCR is performed using 1 μl of cDNA and LightCycler FastStart DNA Master SYBR® Green 1 reagent (Roche). PCR primers are depicted in the Table 3. The thermal cycling profile of the touchdown PCR is as follows: 94° C. for 10 min, followed by 40 cycles of 94° C. for 1 s, primer annealing at 68° C. for 7 s with a 0.5° C./cycle decrease until 63° C., and extension for 40 s at 72° C. PCR specificity is verified by melting curve analysis and agarose gel electrophoresis. The mRNA quantification is carried out by using the LinRegPCR programme (Ramakers et al.^17). For each sample the mRNA starting level is normalised for the 18S rRNA starting level. To correct for variations between RT-PCR runs, the mRNA starting levels of liver specific genes of NKNT-3 cells are additionally standardized for average mRNA starting levels of two liver samples that are simultaneously subjected to RT-PCR.

HepG2 cells = assay: Urea production of HepG2 cells in monolayer, response to CG
Description: (§1) Urea: Urea concentrations of test medium samples are determined using the blood urea nitrogen test of Sigma Chemical Co according to the instructions of the manufacturer.
(§2) The HepaRG cells are cultured as indicated above in 24 well in presence or absence of 1 mM CG during the last 5 days. Next the cells are tested as indicated above in presence or absence of CG during 24 hours. To determine the conversion of ammonia into urea, the ^15N urea enrichment (single and double labeled) is measured in the test samples using mass-spectrometry. Similarly, HepG2 and cBAL111 cells were tested for their response to CG.

cBAL111 cells = assay: Urea production of cBAL111 cells in monolayer, response to CG
Description: as §1, §2

[1] = 1 mM CG in preincubation and in testmedium (++)
[2] = 1 mM CG only during preincubation (+−)

SMILES: NC(=O)N[C@@H](CCC(=O)O)C(=O)O [CG, carbamoyl glutamate]
- effect on other hepatic functions and the gene expression profiles (HepaRG cells): No effect
- Urea production (HepG2 cells; [1]): 2.4 ± 1.6 nmol/h/mg protein
- Urea production (HepG2 cells; [2]): 2.5 ± 1.4 nmol/h/mg protein
- Urea production (HepG2 cells; 1 mM CG only during test (−+)): 1.8 ± 1.1 nmol/h/mg protein
- Urea production (cBAL111 cells; [1]): 9.4 ± 8.4 nmol/h/mg protein
- Urea production (cBAL111 cells; [2]): 10.8 ± 6.2 nmol/h/mg protein
- Urea production (cBAL111 cells; 1 mM CG only during test (−+)): 8.3 ± 8.3 nmol/h/mg protein
